# Molecular target: Neurotensin receptor (Homo sapiens, UniProt O95665+P30989)
# Experiment: Binding ability to compete with [125I]Tyr3-NT (0.15 nM) for human NT receptors cloned in CHO cells.
# Assay type: cell-based
row,Ki,SMILES
1,> 2000 nM,CC[C@@H](C)[C@@H](NC(=O)[C@@H]1Cc2ccc(cc2)OCCCCCC(=O)N2CCC[C@H]2C(=O)N1)C(=O)N[C@@H](CC(C)C)C(=O)O
2,450 nM,CC[C@@H](C)[C@@H](NC(=O)[C@@H]1Cc2ccc(cc2)OCCCCCC(=O)N[C@H](CCCN=C(N)N)C(=O)N2CCC[C@H]2C(=O)N1)C(=O)N[C@@H](CC(C)C)C(=O)O
3,28 nM,CC[C@H](C)[C@H](NC(=O)[C@H](Cc1ccc(O)cc1)NC(=O)[C@@H]1CCCN1C(=O)[C@@H](N)CCCN=C(N)N)C(=O)N[C@@H](CC(C)C)C(=O)O

# Source: ChEMBL document CHEMBL1131964, “Preparation and receptor binding affinities of cyclic C-terminal neurotensin (8-13) and (9-13) analogues” (Bioorg Med Chem Lett, 1999)
